The target of one data set is T1, STING HAQ-variant (Homo sapiens, UniProt Q86WV6, G230A/H232R/R293Q/R71H).
T1 construct: parental THP1-Blue™ ISG cell lines (which express endogenously HAQ); host or cells: THP1-Blue ISG (parental, endogenous HAQ) or STING-KO clone re-transduced with HAQ (MSCV-ires-GFP-Blasti)
As to the kind of experiment: IRF-inducible SEAP reporter assay in THP1-Blue ISG cells, STING HAQ-variant. It counts as cell-based. To be noted: STING HAQ-variant (parental or re-introduced), 24 hours incubation. An excerpt: In Vitro Cytokine Induction Measured Via Activation of an Interferon Regulatory Factor Inducible Reporter Gene
Activation of the STING protein expressed in cell lines results in an increase of interferon production. By the stable integration of an interferon regulatory factor (IRF)-inducible SEAP gene (secreted embryonic alkaline phosphatase) reporter construct the functional interferon signaling pathway can be monitored. Using Invivogen's THP1-Blue™ ISG colorimetric enzyme assay and a suitable optical density (OD) reader the activity of SEAP can be detected and quantified. This technique could be used to characterize pharmacological modification of the STING pathway.
Several single nucleotide polymorphisms have been identified in the human STING gene. To determine the activity of the above described compounds, THP1-Blue™ ISG reporter cell lines expressing the different human STING variants have been generated. To do so, the endogenous human STING was first deleted using the CRISPR/CAS9 system: THP1-Blue ISG cells were electroporated with ALL-IN-ONE CRISPR plasmids targeting the STING gene (purchased from Sigma encoding the gRNA and GFP as a reporter gene for successful transduction). GFP positive cells then were sorted 24 h post transfection and expanded. Cells were then dispersed in semisolid methocel medium to allow single cell clone isolations. Clones were then screened for cGAMP responsiveness using the Quanti-Blue™ reporter assay. Non-responsive clones were subsequently analysed for STING loss by western blotting and sequencing of the STING locus.
For the overexpression of the human STING variants, a confirmed THP1-Blue™ ISG hSTING KO clone was transduced with individual retroviral plasmids (MSCV-ires-GFP-Blasti) encoding the allelic variants of hSTING (WT (H232R), HAQ, R232H, AQ and R293Q). Transduced cells were sorted for different levels of GFP fluorescence and STING allele expression was analysed by western blot.
Measurements of SEAP activity were performed in THP1-Blue™ ISG cells stably expressing the different human STING isoforms and the IRF-inducible SEAP reporter construct. Cells were cultivated in RPMI1640 medium with 10% fetal calf serum, 50 μg/ml Penicillin-Streptomycin, 100 μg/ml Zeocin, and 100 μg/ml Normocin in a 37°, 95% humidity and 5% CO2 incubator.
In preparation for the assay, the cells were distributed into the assay plates with a density of 10000 cells/15 μL per well. Compounds were prepared by an 8 point serial dilution in 50% aqueous DMSO and a final dilution step into medium to ensure a final DMSO concentration of 0.5% in the assay. 5 μL of diluted compounds were added to the plates, followed by a 24 hours incubation at 37° C.
At the day of the assay, 75 μl per well of Quanti-Blue™ reagent was added to all wells of the plate and the plate was incubated another 30 minutes at 37° C. The OD at 620 nm was measured on the EnVision reader (PerkinElmer).
EC50 values and Hill slopes were derived from 8-point four parametric non-linear curve fittings with the Megalab software (Boehringer Ingelheim) using the OD at 620 nm.
Data of EC50 values can be found in tables 2a-2e.
Data of EC50 values on STING HAQ-variant can be found in table 2a. Shown data below were either derived from the parental THP1-Blue™ ISG cell lines (which express endogenously HAQ) or from genetically engineered THP1-Blue™ ISG cell lines in which first STING has been knocked-out and the HAQ specific STING isoform has been re-introduced as described above.
(Reporter assays use an easily measured gene product as a stand-in for the process of interest.)

Another data set in a line: in vitro. To be noted: human, Caco-2, pH 7.4.
The test system of data set [1] is Human STING (hSTING, residues 155-341). The data set can be described thus: Interaction with hSTING as determined by Differential Scanning Fluorimetry (DSF). To be noted: 100 μM test compounds, 5 μM target protein. It counts as binding. Here is the method:
Interaction with hSTING as Determined by Differential Scanning Fluorimetry (DSF)
In DSF, the temperature at which a protein unfolds, also called the melting temperature Tm, is measured by changes in fluorescence of a dye that binds to the hydrophobic parts of the protein. Tm shifts upon binding of a small molecule are correlated with the binding affinity of this small molecule. As target protein, Human STING (hSTING, residues 155-341, MW: 21578.4 Da; protein stock solution: c=1302 μM stock solution in 20 mM Tris, 100 mM NaCl, 2 mM TCEP pH 8.8) was used, as assay buffer 20 mM Tris, 150 mM NaCI pH7.5 was added where and as necessary.
Final concentrations of components in assay: 100 μM test compounds, 5 μM target protein, “5×” SYPR Orange (from stock solution SYPRO orange solution in DMSO (invitrogen cat.-no. S6650-500 ul), concentration “5000×”)
1) Dilutions of compound stock solutions (10 mM in DMSO) were prepared in assay buffer (20 mM Tris, 150 mM NaCl; pH7.5)
2) 5 μl fluorescent dye stock solution (5000×SYPRO Orange in DMSO) was mixed with 19 μl target protein (1302 μM) and 976 μl assay buffer.
3) 2 μl of this protein-dye-mixture (25×SYPRO Orange and 25 μM Protein) was added to 8 μl diluted compound solution as prepared in step 1. Final volume was 10 μl.
4) With every 20 compounds, two negative controls were measured.
5) The plates were prepared for duplicate measurement and centrifuged for 2 min at 1000 g.
6) For the measurement, a CFX384 Real-Time System (Bio-Rad) was used. The run consisted of 140 cycles with 0.5° C./cycle (temperature ramp 15 s/cycle, 25° C. to 95° C.).
Data analysis: The melting curves were processed in Bio-Rad CFX Manager. Peak type was set to “negative”. Two replicates of TM (melting temperature) measurements were averaged and the standard deviation was calculated.
(In general: DSF heats the sample and reads unfolding from a dye or from intrinsic fluorescence.)

T1 sequence (Q86WV6 whole entry R71H/G230A/H232R/R293Q): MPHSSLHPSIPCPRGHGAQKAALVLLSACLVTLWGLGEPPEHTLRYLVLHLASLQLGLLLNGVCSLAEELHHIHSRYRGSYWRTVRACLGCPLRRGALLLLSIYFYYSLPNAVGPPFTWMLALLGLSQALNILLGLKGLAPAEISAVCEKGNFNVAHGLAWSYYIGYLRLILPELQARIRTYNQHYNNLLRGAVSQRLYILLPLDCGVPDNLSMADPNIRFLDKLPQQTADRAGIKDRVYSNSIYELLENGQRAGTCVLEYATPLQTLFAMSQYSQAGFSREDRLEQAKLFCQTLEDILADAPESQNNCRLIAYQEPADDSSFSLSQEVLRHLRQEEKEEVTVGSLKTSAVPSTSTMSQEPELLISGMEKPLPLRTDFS
Experimental for in vitro: Cellular Permeability Measurements
Caco-2 cells were obtained from Leibniz Institute DSMZ-German Collection of Microorganisms and Cell Cultures (Braunschweig, Germany) and cultured in DMEM (Dulbecco's modified Eagle medium) containing (in final concentrations) 10% FCS (fetal calf serum), 1% NEAA (non-essential amino acids), 2 mM Glutamin, 100 U/mL Penicillin and 100 μg/mL Streptomycin. Caco-2 cells were seeded either onto 24-well Transwell inserts (Corning, #3379) for bidirectional permeability assays at a density of 160,000 cells/cm^2 and cultured for 3 weeks, with media change on every second day.
For bidirectional permeability assays 10 mM DMSO stock solutions were diluted in transport buffer (final concentrations: 128.13 mM NaCl, 5.36 mM KCl, 1 mM MgSO4, 1.8 mM CaCl2, 4.17 mM NaHCO3, 1.19 mM Na2HPO4, 0.41 mM NaH2PO4, 15 mM 2-[4-(2-hydroxyethyl)piperazin-1-yl]ethanesulfonic acid (HEPES), 20 mM glucose, pH 7.4) containing 0.25% bovine serum albumin to a final concentration of 10 μM of the test compounds and added to the apical or basal compartment. Cells were incubated with the compounds for up to 2 h. Samples from the opposite compartment were taken at different timepoints.
Compound concentrations in the compartments were quantified using a RapidFire-based high-throughput HPLC/MS/MS system (high performance liquid chromatography/mass spectrometry; Bio-Cius) that was customized to a fully automated and flexible platform, termed RIAS. In this modified setup, the sample was aspirated by a vacuum pump into a 10 μL sample loop for 250 ms and flushed onto a C4 cartridge (3.8 μL bed volume; Bio-Cius) with the aqueous mobile phase (99.9% water, 0.09% formic acid, and 0.01% TFA; flow rate 1.5 mL/min). Prior to bioanalysis samples were spiked with internal standard solution and diluted with acetonitrile (ACN) for protein precipitation. Measurement was operated in multiplereaction monitoring (MRM) mode. Quantification was performed using external calibration. A solid-phase extraction step retained the analyte for 3000 ms while interfering matrix (e.g., buffer components) was removed. With a simple step gradient, the analyte was back-eluted from the cartridge for 3,000 ms with the organic mobile phase (99.9% acetonitrile/methanol [1:1, v:v], 0.09% formic acid, and 0.01% TFA) and flushed into the mass spectrometer at a flow rate of 1.25 mL/min. Afterwards, the cartridge was re-equilibrated with the aqueous mobile phase for 500 ms (flow rate 1.5 mL/min).
Apparent permeability coefficients in the apical to basal direction (Papp,AB) and in the basal to apical direction (Papp,BA) and efflux ratios were calculated as follows: Papp,AB=QAB/(C0·s·t) Papp,BA=QBA/(C0·s·t) Efflux ratio=Papp,BA/Papp,AB
where Q is the amount of compound recovered in the receiver compartment after the incubation time t, C0 the initial compound concentration given to the donor compartment, and s the surface area of the Transwell inserts. […] In addition, transepithelial electrical resistance (TEER) values are measured for each plate before the permeability assay, and total recovery in donor and receiver compartments was determined for each compound.

On to `Cc1cccc2c(-c3cccc4nn(C)cc34)nn(-c3ccc(-c4ccc(S(C)(=O)=O)cc4)nc3)c12` [compound 73, 1-[6-(4-methanesulfonylphenyl)pyridin-3-yl]-2′,7-dimethyl-1H,2′H-3,4′-biindazole], for which, on STING HAQ-variant, the concentration for a half-maximal effect (EC50) stood at 4.4 µM. For the same compound, the efflux ratio at 10 μM in “in vitro” worked out at 0.5.

`Cc1cccc2c(-c3cccc4nn(C)cc34)nn(-c3ccc(N4CC5CC4CO5)nc3)c12` (stereo not shown) [compound 11, 2′,7-dimethyl-1-(6-{2-oxa-5-azabicyclo[2.2.1]heptan-5-yl}pyridin-3-yl)-1H,2′H-3,4′-biindazole]: in data set [1], the “thermal shift (ΔTm)” value was 21 K. Further, at STING HAQ-variant, the EC50 amounted to 3.2 µM. Moreover, in “in vitro”, the Papp A→B at 10 μM is 27 ×10⁻⁶ cm/s and the efflux ratio at 10 μM was found to be 0.3.

In the case of `Cc1cccc2c(-c3cccc4nn(C)cc34)nn(-c3ccc(N4CCCNCC4)nc3)c12` [compound 45, 1-(6-(1,4-diazepan-1-yl)pyridin-3-yl)-2′,7-dimethyl-1H,2′H-3,4′-biindazole], in data set [1], the “thermal shift (ΔTm)” value was 19 K. On STING HAQ-variant, the EC50 amounted to 1.9 µM.

For the compound `CC(=O)N(C)C1CCN(c2ccc(-n3nc(-c4cccc5nn(C)cc45)c4cccc(C)c43)cn2)C1` (stereo not shown) [Example #6, N-[1-(5-{2′,7-dimethyl-1H,2′H-[3,4′-biindazol]-1-yl}pyridin-2-yl)pyrrolidin-3-yl]-N-methylacetamide], the “thermal shift (ΔTm)” value in data set [1] is 22 K. Further, the EC50 on STING HAQ-variant is 3.1 µM. Moreover, in “in vitro”, the Papp A→B at 10 μM was found to be 39 ×10⁻⁶ cm/s and the efflux ratio at 10 μM is 0.4.

On to `Cc1cccc2c(-c3cccc4nn(C)cc34)nn(-c3ccc(N4CCCN(C=O)CC4)nc3)c12` [compound 52, 4-(5-{2′,7-dimethyl-1H,2′H-[3,4′-biindazol]-1-yl}pyridin-2-yl)-1,4-di-azepane-1-carbalde-hyde], for which, in data set [1], the “thermal shift (ΔTm)” value was 21 K. At STING HAQ-variant, the EC50 came to 1.9 µM. The efflux ratio at 10 μM in “in vitro” turned out to be 0.4.

Take `C#Cc1cccc2c(-c3cccc4nn(C)cc34)nn(-c3ccc(N4CC5C(C4)C5C(=O)O)nc3)c12` (stereo not shown) [Example #74, 3-(5-{7-ethynyl-2′-methyl-1H,2′H-[3,4′-biindazol]-1-yl}pyridin-2-yl)-3-azabicyclo[3.1.0]hexane-6-carboxylic acid]: the “thermal shift (ΔTm)” value in data set [1] was 16 K. Also, at STING HAQ-variant, the 50% effective concentration (EC50) is 4.3 µM.

As to `COC(=O)c1ccc2c(-c3cccc4nn(C)cc34)nn(-c3ccc(N4CCC(S(C)(=O)=O)CC4)nc3)c2c1C` [compound 25, methyl 1-[6-(4-meth-anesulfonylpiperidin-1-yl)pyridin-3-yl]-2′,7-di-methyl-1H,2′H-[3,4′-biindazole]-6-carboxylate], in data set [1], the “thermal shift (ΔTm)” value is recorded as 25 K. Moreover, on STING HAQ-variant, the concentration for a half-maximal effect (EC50) is 0.2 µM.

Consider `Cc1cccc2c(-c3cccc4nn(C)cc34)nn(-c3ccc(N4CCC(N5CCCC5=O)CC4)nc3)c12` [compound 21, 1-[1-(5-{2′,7-dimethyl-1H,2′H-[3,4′-biindazol]-1-yl}pyridin-2-yl)piperidin-4-yl]pyrrolidin-2-one], for which, in data set [1], the “thermal shift (ΔTm)” value was determined as 20 K. Further, the EC50 at STING HAQ-variant came out at 4.7 µM. For the same compound, in “in vitro”, the apical-to-basolateral permeability (Papp A→B) at 10 μM worked out at 23 ×10⁻⁶ cm/s and the efflux ratio at 10 μM was 0.3.

`COCCNc1ccc(-n2nc(-c3cccc4nn(C)cc34)c3cccc(C)c32)cn1` [compound 14, 5-{2′,7-dimethyl-1H,2′H-[3,4′-biindazol]-1-yl}-N-(2-methoxyethyl)pyridin-2-amine]: the “thermal shift (ΔTm)” value in data set [1] is reported as 18 K. Besides, the EC50 at STING HAQ-variant is 6.9 µM. For the same compound, in “in vitro”, the apparent permeability from apical to basolateral (Papp A→B) at 10 μM is 39 ×10⁻⁶ cm/s and the efflux ratio at 10 μM turned out to be 0.3.

Take `Cc1cccc2c(-c3cccc4nn(C)cc34)nn(-c3ccc(N4CCC(C)(C(=O)O)CC4)nc3)c12` [compound 27, 1-(5-{2′,7-dimethyl-1H,2′H-[3,4′-biindazol]-1-yl}pyri-din-2-yl)-4-methylpiperi-dine-4-carboxylic acid]: in data set [1], the “thermal shift (ΔTm)” value is recorded as 22 K. For the same compound, the EC50 at STING HAQ-variant amounted to 5.2 µM. Further, in “in vitro”, the apical-to-basolateral permeability (Papp A→B) at 10 μM was 32 ×10⁻⁶ cm/s and the efflux ratio at 10 μM stood at 0.5.

Consider `Cc1cccc2c(-c3cccc4nn(C)cc34)nn(-c3ccc(N4CCN5C(=O)OCC5C4)nc3)c12` (stereo not shown) [compound 8, 7-(5-{2′,7-dimethyl-1H,2′H-[3,4′-biindazol]-1-yl}pyri-din-2-yl)-hexahydro-1H-[1,3]oxazolo[3,4-a]pyrazin-3-one], for which, in data set [1], the “thermal shift (ΔTm)” value is listed as 21 K. Moreover, the EC50 on STING HAQ-variant is 1.2 µM.

Regarding `CCOC(=O)C1CCN(c2ccc(-n3nc(-c4cccc5nn(C)cc45)c4cccc(C)c43)cn2)CC1` [compound 31, ethyl 1-(5-{2′,7-dimethyl-1H,2′H-[3,4′-biindazol]-1-yl}pyridin-2-yl)piperidine-4-carboxylate], the half-maximal effective concentration (EC50) on STING HAQ-variant turned out to be 5.4 µM. Besides, the efflux ratio at 10 μM in the data set “in vitro” was determined as 0.6.

Turning to `Cc1cccc2c(-c3cccc4nn(C)cc34)nn(-c3ccc(N4CCC(c5cnn(C)c5)CC4)nc3)c12` [compound 20, 2′,7-dimethyl-1-{6-[4-(1-methyl-1H-pyrazol-4-yl)pi-peridin-1-yl]pyridin-3-yl}-1H,2′H-3,4′-biindazole], the “thermal shift (ΔTm)” value in data set [1] stood at 20 K. Moreover, the half-maximal effective concentration (EC50) at STING HAQ-variant was determined as 2.2 µM. For the same compound, in “in vitro”, the efflux ratio at 10 μM came to 0.8.

As for `Cc1cccc2c(-c3cccn4nccc34)nn(-c3ccc(N4CCC(C(=O)O)CC4)nc3)c12` [compound 60, 1-[5-(7-methyl-3-{pyra-zolo[1,5-a]pyridin-4-yl}-1H-indazol-1-yl)pyridin-2-yl]piperidine-4-carboxylic acid], on STING HAQ-variant, the half-maximal effective concentration (EC50) came to 6.6 µM. For the same compound, in “in vitro”, the apical-to-basolateral permeability (Papp A→B) at 10 μM was determined as 19 ×10⁻⁶ cm/s and the efflux ratio at 10 μM was determined as 0.9.

Consider `Cc1cccc2c(-c3cccc4nn(C)cc34)nn(-c3ccc(N4CC5(CCS(=O)(=O)CC5)C4)nc3)c12` [compound 4, 2-(5-{2′,7-dimethyl-1H,2′H-[3,4′-biindazol]-1-yl}pyri-din-2-yl)-7λ^6-thia-2-azaspiro[3.5]nonane-7,7-dione], for which the “thermal shift (ΔTm)” value in data set [1] is 20 K. Besides, the EC50 on STING HAQ-variant is 1.1 µM.

As a reminder, the EC50 is the concentration needed to bring the measured effect to its halfway point. The term efflux ratio denotes a quotient of directional permeabilities that is used to spot active efflux. Broadly, the Papp A→B is how fast a substance crosses the layer from the apical side.
